biological target: Protein Wnt-3a (Mus musculus, UniProt P27467)
Sequence (P27467 whole entry): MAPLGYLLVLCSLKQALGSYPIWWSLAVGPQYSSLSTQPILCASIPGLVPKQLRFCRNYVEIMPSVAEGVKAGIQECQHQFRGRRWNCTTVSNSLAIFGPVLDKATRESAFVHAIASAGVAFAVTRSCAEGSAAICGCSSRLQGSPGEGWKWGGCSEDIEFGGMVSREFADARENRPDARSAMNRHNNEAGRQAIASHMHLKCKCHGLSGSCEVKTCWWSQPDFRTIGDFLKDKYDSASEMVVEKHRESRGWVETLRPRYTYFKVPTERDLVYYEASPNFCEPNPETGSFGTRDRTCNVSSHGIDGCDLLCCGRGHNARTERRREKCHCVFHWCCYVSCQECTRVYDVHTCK

| IC50 | SMILES |
| --- | --- |
| > 12.5 µM | Clc1ccc(-c2c[n+](Cc3ccc(Cl)cc3Cl)c3n2CCCCC3)cc1 [SMR000420192] |
| > 50 µM | COc1cc(C(=O)NC2CCN(C)CC2)ccc1Nc1ncc2c(n1)N(CCc1ccccc1)CCC(=O)N2C [MLS002232307] |
| > 50 µM | COc1cc(C(=O)NC2CCN(C)CC2)ccc1Nc1ncc2c(n1)N(C1CCCCC1)CCC(=O)N2C [SMR001307858] |
| > 50 µM | Cc1ccc(C)c(-c2csc(NC(=O)C3=COCCO3)n2)c1 [SMR000713303] |
| > 50 µM | CCCc1nc(SCC(=O)Nc2nnc(CC)s2)c2c(=O)n(C)c(=O)n(C)c2n1 [SMR000806028] |
| > 50 µM | CC(NC(=O)c1cc2c(=O)n3ccccc3nc2n(CC2CCCO2)c1=N)c1ccccc1 (configuration not stated) [MLS001217747] |
| > 12.5 µM | O=C(Nc1cc2c3c(c1)C1CCCC1CN3CC1CCCC21)c1ccc([N+](=O)[O-])cc1 (configuration not stated) [MLS000324904] |
| > 50 µM | CC(=O)c1c(C)[nH]c(C(=O)OCC(=O)Nc2sc3c(c2C#N)CCCC3)c1C [SMR000249195] |
| > 12.5 µM | CC(C)(C)[C@H]1COC(=O)[C@H](NC(=O)OCC2c3ccccc3-c3ccccc32)C/C=C\C[C@@H](CC(=O)N(CCO)Cc2ccccc2)C(=O)N1 [MLS002320431] |
| > 50 µM | CCCCCCCNC1=CC(=O)CC(c2ccccc2)C1 (configuration not stated) [SMR000203844] |
| > 50 µM | CCC(=O)c1ccc(OCC(O)Cn2c(C)nc3ccccc32)cc1 (configuration not stated) [SMR000075355] |
| 26.3 µM | CCn1c(CC=Nc2ccccc2)[n+](CC)c2ccc(Cl)cc21 [SMR000173759] |
| > 50 µM | CC(N=Nc1ccc(Cl)nn1)c1ccccc1O (configuration not stated) [MLS001233678] |
| > 50 µM | CC(=O)c1ccc(-[n+]2cc(-c3ccc(C(C)(C)C)cc3)n3c2SCCC3)cc1 [MLS001018012] |
| > 50 µM | CCOc1ccc(-c2nc(CSCC(=O)NC3CC3)c(C)o2)cc1 [SMR000635235] |
| > 50 µM | C[n+]1c2n(c3ccccc31)N=C(c1ccccc1)CS2 [SMR000176360] |

| IC50 | SMILES |
| --- | --- |
| > 50 µM | COc1ccc(C(=O)C[n+]2cc(-c3ccc(OC)cc3)n3c2CCCC3)cc1 [MLS001018126] |
| > 50 µM | COc1ccc(Nc2nc(N3CCOCC3)nc(N3CCOCC3)n2)c(OC)c1 [SMR000515822] |
| > 50 µM | COCCNC(=O)CSCc1nc(-c2ccc(SC)cc2)oc1C [MLS000089367] |
| > 50 µM | CC1=CC(C)C2(COC(c3ccc[n+](C)c3)OC2)C(C)C1 (configuration not stated) [MLS000717774] |
| > 50 µM | C[N+]1=C(CC=Nc2ccccc2)C(C)(C)c2ccccc21 [MLS000390698] |
| > 50 µM | CC(C)(C)C1CCC(OC(=O)C[N+]2(C)CCCCC2)CC1 (configuration not stated) [SMR000306329] |
| > 50 µM | CCOc1ccc(-c2nc(CSCC(=O)NCC3CCCO3)c(C)o2)cc1 (configuration not stated) [SMR000635237] |
| 21.7 µM | COc1ccc(CN(C)C(=O)c2cccc(NC(=O)Cc3sc(N4CCCCC4)nc3O)c2)c(OC)c1 [MLS002180955] |
| > 50 µM | O=C(Cn1c(-c2ccccc2)c[n+]2ccsc12)c1ccc(Br)cc1 [SMR000354292] |
| 13.3 µM | CCc1ccccc1NC(=S)NN=C1C(=O)N(C)c2ccc(S(=O)(=O)N3CCOCC3)cc21 [SMR000207996] |
| > 50 µM | CCCN(CCC)CCNC(=O)c1cc2c(=O)n(C)c3ccccc3c2n1C [MLS000118109] |
| > 50 µM | O=C(Cc1csc(Nc2[nH]c(=S)nc3ccccc23)n1)NCCCN1CCN(c2ccccc2F)CC1 [SMR000310923] |
| > 50 µM | O=c1c2ccccc2sc2c(CO)ccc(NCCN3CCCCC3)c12 [MLS002702047] |
| > 50 µM | Clc1ccc(-[n+]2cc(-c3ccc(Br)cc3)n3c2CCCCC3)cc1 [MLS001029582] |
| > 50 µM | CCn1c(=O)cc(SCC(=O)N2CCN(C3CCCCC3)CC2)c2ccccc21 [MLS000092496] |

More lines, now with the values behind:

| SMILES | IC50 |
| --- | --- |
| CCCCn1c(SCc2c(C)noc2C)nc2cc(S(N)(=O)=O)ccc21 [1-butyl-2-[(3,5-dimethyl-1,2-oxazol-4-yl)methylsulfanyl]benzimidazole-5-sulfonamide] | > 50 µM |
| O=C(CCCCCCC(=O)Nc1ccccc1)NO [Zolinza] | > 50 µM |
| COc1cccc2nc3c(C(=O)NCCN(C)C)cccc3cc12 | > 50 µM |
| O=C(Nc1ccncc1)c1ccc(-c2ccccc2)cc1 [4-phenyl-N-(4-pyridyl)benzamide] | > 50 µM |
| COc1cc2c(c(OC)c1OC)-c1ccc(N(C)CC(OC)OC)c(=O)cc1[C@@H](NC(C)=O)CC2 [SMR000540275] | > 50 µM |
| CC(C)(C)OC(=O)N1CCC(c2cc(-c3cccs3)n[nH]2)CC1 [4-(3-thiophen-2-yl-1H-pyrazol-5-yl)-1-piperidinecarboxylic acid tert-butyl ester] | > 50 µM |
| Cc1ccc(-c2csc(NC(=O)c3c(C)noc3C)n2)s1 | > 50 µM |
| COc1cc(C(=O)NC2CCN(C)CC2)ccc1Nc1ncc2c(n1)N(Cc1ccccc1)CCC(=O)N2C [3-methoxy-4-[[5-methyl-6-oxo-9-(phenylmethyl)-7,8-dihydropyrimido[4,5-b][1,4]diazepin-2-yl]amino]-N-(1-methyl-4-piperidinyl)benzamide] | > 50 µM |
| O=C(NC1CCCC1)c1cc(COc2ccc3ncccc3c2)on1 | > 50 µM |
| C=CCN1C(=O)C(=NNC(=S)Nc2cccc(C)c2)c2ccccc21 [1-(3-methylphenyl)-3-[(Z)-(2-oxidanylidene-1-prop-2-enyl-indol-3-ylidene)amino]thiourea] | 29.2 µM |
| CC(=O)N1c2ccc(S(=O)(=O)N3CCC(C(=O)N4CCCCC4)CC3)cc2CC1C (configuration not stated) [1-[2-methyl-5-(4-piperidin-1-ylcarbonylpiperidin-1-yl)sulfonyl-2,3-dihydroindol-1-yl]ethanone] | > 50 µM |
| O=C(C[n+]1cc(-c2ccccc2)n2c1CCCCC2)c1ccc(Cl)cc1 [1-[2-(4-Chloro-phenyl)-2-oxo-ethyl]-3-phenyl-6,7,8,9-tetrahydro-5H-imidazo[1,2-a]azepin-1-ium] | > 50 µM |
| O=C(COC(=O)c1ccc2[nH]c3c(c2c1)CCCC3)Nc1ccccc1Cl [[2-[(2-chlorophenyl)amino]-2-oxidanylidene-ethyl] 6,7,8,9-tetrahydro-5H-carbazole-3-carboxylate] | > 50 µM |
| CCOc1ccc(-n2c(O)c(CN=Nc3nc(C)cc(C)n3)c3ccccc3c2=O)cc1 [(4Z)-4-[[(4,6-dimethyl-2-pyrimidinyl)hydrazo]methylidene]-2-(4-ethoxyphenyl)isoquinoline-1,3-dione] | 11.2 µM |
| Cc1cccc(C)c1N=C(S)N(CCN1CCCCCC1)Cc1ccco1 [1-[2-(1-azepanyl)ethyl]-3-(2,6-dimethylphenyl)-1-(2-furanylmethyl)thiourea] | > 50 µM |
| Cc1cc(N=NCc2ccc(O)cc2O)nc(-n2nc(C)cc2C)n1 [(4E)-4-[[2-[2-(3,5-dimethylpyrazol-1-yl)-6-methyl-pyrimidin-4-yl]hydrazinyl]methylidene]-3-oxidanyl-cyclohexa-2,5-dien-1-one] | 41.3 µM |
| CN(C)CCn1c2ccccc2c2nc3ccc([N+](=O)[O-])cc3cc21 [N,N-dimethyl-2-(2-nitro-10-indolo[3,2-b]quinolinyl)ethanamine] | > 50 µM |
| COc1ccc(-c2c[n+](CC(=O)c3ccccc3)c3n2CCCCC3)cc1 [2-[3-(4-methoxyphenyl)-6,7,8,9-tetrahydro-5H-imidazo[1,2-a]azepin-1-ium-1-yl]-1-phenyl-ethanone;bromide] | > 50 µM |

| SMILES | IC50 |
| --- | --- |
| Brc1ccc(-[n+]2c(-c3ccccc3)cc(-c3ccccc3)cc2-c2ccccc2)cc1 [SMR000841262] | 15.6 µM |
| Cc1ccc(C2=C(CC(=O)O)C(=O)CC2)cc1 [2-[2-(4-methylphenyl)-5-oxidanylidene-cyclopenten-1-yl]ethanoic acid] | > 50 µM |
| CCc1cc(C(=O)NC2CCCN(Cc3ccccc3F)C2)n(C)n1 (configuration not stated) [5-ethyl-N-[1-[(2-fluorophenyl)methyl]piperidin-3-yl]-2-methyl-pyrazole-3-carboxamide] | > 50 µM |
| Cc1nc2ccccc2c2oc(C(=O)N3CCN(C4CCCCC4)CC3)cc12 [(4-cyclohexylpiperazin-1-yl)-(4-methylfuro[3,2-c]quinolin-2-yl)methanone] | > 50 µM |
| Cc1ccc(S(=O)(=O)N2CCN(C(=O)c3ccc(S(=O)(=O)N4CCCC4)cc3)CC2)cc1 [[4-(Pyrrolidine-1-sulfonyl)-phenyl]-[4-(toluene-4-sulfonyl)-piperazin-1-yl]-methanone] | > 50 µM |
| Brc1ccc(-c2csc(N3CCCCCC3)n2)cc1 [1-[4-(4-bromophenyl)-1,3-thiazol-2-yl]azepane] | > 12.5 µM |
| CCN1C(=O)CCN(C2CCCC2)c2nc(Nc3ccc(C(=O)NC4CCN(C)CC4)cc3OC)ncc21 | > 50 µM |
| CCn1c(CC=Nc2ccccc2)[n+](CC)c2cc(Cl)c(Cl)cc21 [N-[(E)-2-[5,6-bis(chloranyl)-1,3-diethyl-benzimidazol-3-ium-2-yl]ethenyl]aniline;iodide] | 7.29 µM |
| Cc1ccc(O)c(NC(=O)COc2cc(C)ccc2C)c1 [2-(2,5-dimethylphenoxy)-N-(2-hydroxy-5-methylphenyl)acetamide] | > 50 µM |
| CCCCCCCOc1ccc(OC(=O)c2cccnc2)cc1 [(4-heptoxyphenyl) pyridine-3-carboxylate] | > 12.5 µM |
| CC(C)C(=O)N1CCN(c2ccccc2NC(=O)COc2ccccc2)CC1 [N-[2-[4-(2-methyl-1-oxopropyl)-1-piperazinyl]phenyl]-2-phenoxyacetamide] | > 50 µM |
| O=C1NC(=Cc2ccc(O)cc2)C(=O)C1=CNCc1ccccc1 [(3Z,5Z)-3-[(benzylamino)methylidene]-5-[(4-hydroxyphenyl)methylidene]pyrrolidine-2,4-dione] | 7.28 µM |
| O=C(Nc1cc(N2CCCCC2)ncn1)c1ccccc1 [N-[6-(1-piperidinyl)-4-pyrimidinyl]benzamide] | > 50 µM |
| Cc1nc2sccn2c1-c1csc(NCc2ccccc2)n1 [4-(6-methyl-5-imidazo[2,1-b]thiazolyl)-N-(phenylmethyl)-2-thiazolamine] | > 50 µM |
| CC(C)(C)c1ccc(C(=O)NC(=S)Nc2ccc(N3CCOCC3)cc2)cc1 | > 50 µM |
| CCCCCCCOc1ccc(OC(=O)c2ccncc2)cc1 [(4-heptoxyphenyl) pyridine-4-carboxylate] | > 12.5 µM |
| CCOP(=O)(CCP(=O)(OCC)OCC)OCC [MLS002702923] | 11.8 µM |
| CCOc1ccc2[nH]c3c(N4CCN(C(=O)c5ccco5)CC4)ncnc3c2c1 [[4-(8-ethoxy-5H-pyrimido[5,4-b]indol-4-yl)-1-piperazinyl]-(2-furanyl)methanone] | > 50 µM |
